Patent US20120142028A1, “[…] […] ANTI-CANCER RESPONSE TO EPIDERMAL GROWTH FACTOR RECEPTOR KINASE INHIBITORS” (OSI Pharmaceuticals, LLC, priority 2009, published 2012)
Values joined by “and” are separate entries in the source; they are usually repeats but may differ in a detail not shown here. Identical values can stand only once. “Also recorded” adds a separate entry of the source.

Tested on: patients who had had progression after standard chemotherapy for non-small-cell lung cancer
Assay: NCIC CTG BR.21 Phase 3 trial of TARCEVA vs placebo; survival and PFS by tumor E-cadherin/vimentin IHC status
Format: in vivo, human
Conditions: for Hazard Ratio (H/L) (95% CI) / Median Survival / Median PFS: Erlotinib arm; for Hazard Ratio (95% CI): Erlotinib vs. Placebo; for Median PFS: progression free survival
Procedure: The NCIC CTG. BR.21 study was a Phase 3 trial of TARCEVA® involving patients who had had progression after standard chemotherapy for non-small-cell lung cancer (i.e. 2nd and 3rd line NSCLC; Shepherd F A, et al. N Engl. J. Med 2005; 353:123-132.). Patients were randomly assigned in a 2:1 ratio to receive 150 mg of TARCEVA® (erlotinib HCl) daily or placebo. The primary end point was overall survival. Progression free survival and response were secondary end points. Separate written consent was obtained for optional tissue banking and correlative studies.
Because the BR21 trial is one of the few TARCEVA® clinical trials that includes a large number of patients and an untreated placebo group, it is optimally designed to evaluate the predictive and prognostic potential of biomarkers. As such, the potential of vimentin and E-cadherin protein expression to serve as a predictive biomarker for overall survival and […] was assessed using remaining tumor samples from the BR21 study. IHC analysis of tumor tissue samples received from NCIC was used to determine E-Cadherin and vimentin protein expression. Sensitivity analyses were performed to determine optimal cut points for E-Cadherin and vimentin staining for classification of E-Cadherin and vimentin as “High” or “Low” for use as prognostic and/or predictive markers for survival and progression-free survival. Further analyses were performed to evaluate possible correlations of biomarker status with clinical outcomes of survival, progression-free survival, response and disease control.
Stained slides were scored by an experienced pathologist. Slides were first evaluated for quality of tissue and quality of staining Acceptable slides were then evaluated, with the pathologist generating an ‘H-1-score’ based on a subjective interpretation of the staining intensity of the chromagen labeled antibody. Four intensity levels were used in scoring the stained sections: 0 for no staining, +1 for weak or minimal staining, +2 for moderate staining, and +3 for strong staining. The relative percentage of total target cells expressing an intensity level is recorded as data.
Treatment groups as randomized (ITT population) were analyzed using all patients with evaluable tissue. Disease progression as assessed by the investigator was used for PFS (Progression Free Survival) analysis. Potential predictive benefit of E-Cadherin or vimentin expression was assessed by comparing trends in the hazard ratios. No treatments by biomarker interaction tests were performed. Three Scoring Methods were used for E-Cadherin and Vimentin: • 1. % Any Staining of tumor cells • 2. % of tumor cell Staining of Intensity +2 or +3 • 3. Composite Score Example: A sample read as 5% unstained, 35% staining of intensity +1, 45% staining of intensity +2, and 15% staining of intensity +3, would be scored as follows: • 95% any staining • 60% staining of intensity +2 or +3 • 0(5)+1(35)+2(45)+3(15)=Composite Score of 170 Overall survival is defined as the time from the study treatment start date to the date of death. If the patient receives the study treatment but the patient is still alive or a death date is unavailable, overall survival is calculated as the difference between the study treatment start date and the last date the patient was known to be alive. […] Progression free survival (PFS) is defined as the time from the study treatment start date to the documentation date of disease progression or the death date. As with overall survival, if no progression/death date is available, the PFS is calculated as the time from the study treatment start date to the last documented tumor assessment date, and is noted to be “censored”.
Table 6 illustrates the numbers of patients in each treatment arm who were E-Cadherin high vs. low, and vimentin high vs. low for the subset of patients for whom E-Cadherin and vimentin results were available (N=95). P-values are determined from univariate Kaplan-Meier analyses. […]

[1] = overall survival, E-Cadherin High
[2] = overall survival, E-Cadherin Low
[3] = overall survival, E-Cadherin/Vimentin High/High
[4] = overall survival, E-Cadherin/Vimentin High/Low
[5] = overall survival, E-Cadherin/Vimentin Low/High
[6] = overall survival, E-Cadherin/Vimentin Low/Low
[7] = overall survival, Patients with Known E-Cadherin Results
[8] = overall survival, Patients with Known Vimentin Results
[9] = overall survival, Vimentin High

C#Cc1cccc(Nc2ncnc3cc(OCCOC)c(OCCOC)cc23)c1 [Erlotinib, [6,7-bis(2-methoxyethoxy)-4-quinazolin-4-yl]-(3-ethynylphenyl)amine]
Kaplan-Meier overall survival, Erlotinib arm compared to Placebo arm (E-Cadherin high subset (FIG. 3)): more favorable | Kaplan-Meier progression free survival, Erlotinib arm compared to Placebo arm (E-Cadherin high subset (FIG. 4)): more favorable | Kaplan-Meier overall survival, Erlotinib arm compared to Placebo arm (E-Cadherin low subset (FIG. 3)): switched in direction but smaller in magnitude | Kaplan-Meier progression free survival, Erlotinib arm compared to Placebo arm (E-Cadherin low subset (FIG. 4)): switched in direction but smaller in magnitude | Kaplan-Meier overall survival, E-Cadherin high subset compared to E-Cadherin low subset (Erlotinib arm (FIG. 3)): more favorable | Kaplan-Meier progression free survival, E-Cadherin high subset compared to E-Cadherin low subset (Erlotinib arm (FIG. 4)): more favorable | Kaplan-Meier overall survival, vimentin high subset compared to vimentin low subset (Erlotinib arm (FIG. 5)): more favorable; also recorded: longer | Kaplan-Meier progression free survival, vimentin high subset compared to vimentin low subset (Erlotinib arm (FIG. 6)): more favorable; also recorded: longer | Hazard Ratio (H/L) (95% CI) (PFS, E-Cadherin High vs. E-Cadherin Low (cut-point 40% staining of intensity +2 or +3)): 0.571 and 0.57 | Hazard Ratio (H/L) (95% CI) (PFS, Vimentin High vs. Vimentin Low): 0.43 | Hazard Ratio (95% CI) (PFS, All Patients): 0.64 | Hazard Ratio (95% CI) (PFS, E-Cadherin High): 0.52 | Hazard Ratio (95% CI) (PFS, E-Cadherin Low): 1.18 | Hazard Ratio (95% CI) (PFS, E-Cadherin/Vimentin High/High): 0.235 | Hazard Ratio (95% CI) (PFS, E-Cadherin/Vimentin High/Low): 0.73 | Hazard Ratio (95% CI) (PFS, E-Cadherin/Vimentin Low/High): 0.24 | Hazard Ratio (95% CI) (PFS, E-Cadherin/Vimentin Low/Low): 2.75 | Hazard Ratio (95% CI) (PFS, Patients with Known E-Cadherin Results): 0.72 | Hazard Ratio (95% CI) (PFS, Patients with Known Vimentin Results): 0.72 | Hazard Ratio (95% CI) (PFS, Vimentin High): 0.28 | Hazard Ratio (95% CI) (PFS, Vimentin Low): 1.11 | Median Survival (overall survival, All Patients): 6.67 Months | Median Survival [1]: 11.3 Months | Hazard Ratio (H/L) (95% CI) (overall survival, E-Cadherin High vs. E-Cadherin Low (cut-point 40% staining of intensity +2 or +3)): 0.682 and 0.68 | Median Survival [2]: 4.86 Months | Median Survival [3]: 10.38 Months | Median Survival [4]: 12.06 Months | Median Survival [5]: 10.7 Months | Median Survival [6]: 4.81 Months | Median Survival [7]: 8.44 Months | Median Survival [8]: 8.44 Months | Median Survival [9]: 10.55 Months | Hazard Ratio (H/L) (95% CI) (overall survival, Vimentin High vs. Vimentin Low): 0.65 | Median Survival (overall survival, Vimentin Low): 6.11 Months | Hazard Ratio (95% CI) (overall survival, All Patients): 0.76 | Hazard Ratio (95% CI) [1]: 0.47 | Hazard Ratio (95% CI) [2]: 1.12 | Hazard Ratio (95% CI) [3]: 0.31 | Hazard Ratio (95% CI) [4]: 0.57 | Hazard Ratio (95% CI) [5]: 0.26 | Hazard Ratio (95% CI) [6]: 2.44 | Hazard Ratio (95% CI) [7]: 0.69 | Hazard Ratio (95% CI) [8]: 0.69 | Hazard Ratio (95% CI) [9]: 0.26 | Hazard Ratio (95% CI) (overall survival, Vimentin Low): 0.99 | Median PFS (All Patients): 2.23 Months | Median PFS (E-Cadherin High): 3.68 Months | Median PFS (E-Cadherin Low): 1.97 Months | Median PFS (E-Cadherin/Vimentin High/High): 8.02 Months | Median PFS (E-Cadherin/Vimentin High/Low): 2.66 Months | Median PFS (E-Cadherin/Vimentin Low/High): 3.61 Months | Median PFS (E-Cadherin/Vimentin Low/Low): 1.69 Months | Median PFS (Patients with Known E-Cadherin Results): 2.38 Months | Median PFS (Patients with Known Vimentin Results): 2.38 Months | Median PFS (Vimentin High): 5.39 Months | Median PFS (Vimentin Low): 2.18 Months | survival when treated with TARCEVA (subset of treated patients with high E-cadherin expression): longer survival | survival when treated with TARCEVA (subset of treated patients with high vimentin expression): significantly longer survival | Kaplan-Meier overall survival, Erlotinib arm compared to Placebo arm (vimentin high subset (FIG. 5)): more favorable | Kaplan-Meier progression free survival, Erlotinib arm compared to Placebo arm (vimentin high subset (FIG. 6)): more favorable | Kaplan-Meier overall survival, Erlotinib arm compared to Placebo arm (vimentin low subset (FIG. 5)): no difference | Kaplan-Meier progression free survival, Erlotinib arm compared to Placebo arm (vimentin low subset (FIG. 6)): no difference
